Literature values as cited in US20060252738A1, “Method for preparing and using water-based steroid pheromone compositions” (Phero Tech Inc., priority 2005, published 2006).

Assays:
[1] = tested on: sows; settings: pigs; Reed et al. (1974)
[2] = tested on: sows that have reached oestrus; settings: for function in place of boar saliva: pressurized aerosol sprays in organic solvents, sows that have reached oestrus, Melrose et al. 1971

C[C@]12CCC(=O)C[C@H]1CC[C@@H]1[C@@H]2CC[C@]2(C)C=CC[C@@H]12 [5β-androst-16-en-3-one]
bioactivity as diagnostic tool relative to androstenone [1]: comparable

C[C@]12CCC(=O)C[C@@H]1CC[C@@H]1[C@@H]2CC[C@]2(C)C=CC[C@@H]12 [androstenone, 5α-androst-16-en-3-one]
effective dose ([2]; established by Melrose et al. (1972)): 2 to 20 µg | function in place of boar saliva [2]: inducing an immobile mating stance

C[C@@]12C=CC[C@H]1[C@@H]1CCC3=CC(=O)CC[C@]3(C)[C@H]1CC2 [andrsost-4,16-dien-3-one]
bioactivity as diagnostic tool relative to androstenone [1]: comparable

C[C@]12CC[C@H](O)C[C@@H]1CC[C@@H]1[C@@H]2CC[C@]2(C)C=CC[C@@H]12 [3β-hydroxy-5α-androst-16-ene]
bioactivity as diagnostic tool relative to androstenone [1]: less effective

C[C@]12CC[C@@H](O)C[C@@H]1CC[C@@H]1[C@@H]2CC[C@]2(C)C=CC[C@@H]12 [androstenol, 3α-hydroxy-5a-androst-16-ene]
function in place of boar saliva [2]: inducing an immobile mating stance

C[C@@]12CCC[C@H]1[C@@H]1CC[C@H]3CC(=O)CC[C@]3(C)[C@H]1CC2 [5α-androstan-3-one]
bioactivity as diagnostic tool relative to androstenone [1]: less effective
